Target: SARS-CoV-2 RdRp (nsp12, nsp7, nsp8 polymerase complex) (Severe acute respiratory syndrome coronavirus 2, UniProt P0DTD1)
Assay: biochemical
Assay type: biochemical
Conditions: for BEI (binding efficiency index): calculated as pIC50 [mol/L]/MW [kDa] from SARS-CoV-2 RdRp IC50; for IC50: recombinant RdRp: 1 μM nsp12, 3 μM nsp7, 3 μM nsp8, 0.5 μM template/primer RNA, 10 μM NTPs, 1 h at 30 °C, GraphPad fit

SMILES	BEI (binding efficiency index)	IC50	inhibitory activity against SARS-CoV-2 RdRp (in words) (primer extension polymerase assay)
Cn1cc(C(=O)N[C@@H](Cc2ccc(O)cc2)C(=O)O)cc(-c2cccnc2)c1=O [3b]	9.4	204 µM	–
Cn1cc(C(=O)N[C@@H](Cc2ccc(O)cc2)C(=O)O)cc(-c2ccsc2)c1=O [3c]	10.2	88.1 µM	–
O=C(N[C@@H](Cc1ccc(O)cc1)C(=O)O)c1cc(-c2ccccc2)c(=O)n2ccsc12 [4a]	9.3	88.1 µM	–
O=C(N[C@@H](Cc1ccc(O)cc1)C(=O)O)c1cc(-c2ccccc2)c(=O)n2c1oc1ccc(OC3CCCCC3)cc12 [compound 2]	–	–	devoid of any activity
O=C(N[C@@H](Cc1ccc(O)cc1)C(=O)O)c1cc(-c2ccccc2)c(=O)n(-c2cc(OC3CCCCC3)ccc2O)c1O [compound 16]	6.7	114 µM	–
O=C(N[C@@H](Cc1ccc(O)cc1)C(=O)O)c1cc(-c2ccccc2)c(=O)n2c1sc1ccc(OC3CCCCC3)cc12 [compound 1, HeE1-2Tyr, reference compound]	7.8	–	–
Cc1nn2c(=O)c(-c3ccccc3)cc(C(=O)N[C@@H](Cc3ccc(O)cc3)C(=O)O)c2s1 [4b]	8.8	113 µM	–
Cn1cc(C(=O)N[C@@H](Cc2ccc(O)cc2)C(=O)O)cc(-c2ccccc2)c1=O [3a]	9.9	–	–

Source: PMC11092066, “Novel analogues of a nonnucleoside SARS-CoV-2 RdRp inhibitor as potential antivirotics” (Beilstein Journal of Organic Chemistry, 2024)
